Patent publication US11739098B2 (BRISTOL-MYERS SQUIBB COMPANY, priority 2017, dated 2023)

How the values were obtained:
Type in all cases: cell-based
human TLR7 = target: T1, human TLR7 (Homo sapiens, UniProt Q9NYK1); assay: TLR7 inhibition reporter assay (HEK-Blue cells, SEAP reporter, gardiquimod stimulation); settings: HEK-Blue cells overexpressing human TLR7, SEAP reporter, gardiquimod 7.5 μM
T1 construct: host or cells: HEK-Blue cells (HEK293-derived reporter line)
T1 sequence (Q9NYK1 27-1049): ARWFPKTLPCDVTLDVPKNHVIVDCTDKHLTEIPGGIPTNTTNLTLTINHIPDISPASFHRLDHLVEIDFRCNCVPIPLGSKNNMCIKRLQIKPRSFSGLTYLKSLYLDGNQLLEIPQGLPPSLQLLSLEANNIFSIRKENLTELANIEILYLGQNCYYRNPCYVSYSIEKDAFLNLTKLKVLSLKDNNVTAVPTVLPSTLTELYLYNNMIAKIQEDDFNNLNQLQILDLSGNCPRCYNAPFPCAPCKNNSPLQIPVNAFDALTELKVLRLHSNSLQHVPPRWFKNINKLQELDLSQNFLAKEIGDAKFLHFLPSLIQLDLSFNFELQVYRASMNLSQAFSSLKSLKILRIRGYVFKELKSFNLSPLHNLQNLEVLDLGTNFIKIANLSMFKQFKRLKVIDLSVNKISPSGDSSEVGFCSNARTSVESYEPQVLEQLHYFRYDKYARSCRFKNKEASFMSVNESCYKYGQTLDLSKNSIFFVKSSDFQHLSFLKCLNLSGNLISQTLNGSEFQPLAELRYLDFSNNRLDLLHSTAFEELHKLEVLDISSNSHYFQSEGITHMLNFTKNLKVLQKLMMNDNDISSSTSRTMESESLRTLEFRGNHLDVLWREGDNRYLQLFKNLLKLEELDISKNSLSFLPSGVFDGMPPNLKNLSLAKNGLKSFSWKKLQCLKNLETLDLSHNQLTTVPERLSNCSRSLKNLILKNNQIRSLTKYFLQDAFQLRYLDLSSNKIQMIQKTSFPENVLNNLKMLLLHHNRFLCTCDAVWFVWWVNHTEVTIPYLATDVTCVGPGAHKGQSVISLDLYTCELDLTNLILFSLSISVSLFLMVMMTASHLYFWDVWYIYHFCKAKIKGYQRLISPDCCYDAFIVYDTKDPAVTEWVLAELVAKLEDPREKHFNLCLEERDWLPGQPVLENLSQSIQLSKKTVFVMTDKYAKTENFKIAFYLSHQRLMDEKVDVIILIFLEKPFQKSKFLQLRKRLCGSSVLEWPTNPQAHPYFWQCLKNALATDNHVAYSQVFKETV
How it was run: (§1)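 HEK-Blue cells overexpressing human TLR7, TLR8 or TLR9 (NF-κB/AP-1-driven SEAP) pre-treated 30 min at room temperature with compound (0.05 nM–50 μM), then stimulated with gardiquimod 7.5 μM (TLR7), R848 15.9 μM (TLR8) or ODN2006 5 nM (TLR9). SEAP read colorimetrically after 22 h at 37 °C; % inhibition calculated.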

human TLR8 = target: T2, human TLR8 (Homo sapiens, UniProt Q9NR97); assay: TLR8 inhibition reporter assay (HEK-Blue cells, SEAP reporter, R848 stimulation); settings: HEK-Blue cells overexpressing human TLR8, SEAP reporter, R848 15.9 μM
T2 construct: host or cells: HEK-Blue cells (HEK293-derived reporter line)
T2 sequence (Q9NR97 27-1041): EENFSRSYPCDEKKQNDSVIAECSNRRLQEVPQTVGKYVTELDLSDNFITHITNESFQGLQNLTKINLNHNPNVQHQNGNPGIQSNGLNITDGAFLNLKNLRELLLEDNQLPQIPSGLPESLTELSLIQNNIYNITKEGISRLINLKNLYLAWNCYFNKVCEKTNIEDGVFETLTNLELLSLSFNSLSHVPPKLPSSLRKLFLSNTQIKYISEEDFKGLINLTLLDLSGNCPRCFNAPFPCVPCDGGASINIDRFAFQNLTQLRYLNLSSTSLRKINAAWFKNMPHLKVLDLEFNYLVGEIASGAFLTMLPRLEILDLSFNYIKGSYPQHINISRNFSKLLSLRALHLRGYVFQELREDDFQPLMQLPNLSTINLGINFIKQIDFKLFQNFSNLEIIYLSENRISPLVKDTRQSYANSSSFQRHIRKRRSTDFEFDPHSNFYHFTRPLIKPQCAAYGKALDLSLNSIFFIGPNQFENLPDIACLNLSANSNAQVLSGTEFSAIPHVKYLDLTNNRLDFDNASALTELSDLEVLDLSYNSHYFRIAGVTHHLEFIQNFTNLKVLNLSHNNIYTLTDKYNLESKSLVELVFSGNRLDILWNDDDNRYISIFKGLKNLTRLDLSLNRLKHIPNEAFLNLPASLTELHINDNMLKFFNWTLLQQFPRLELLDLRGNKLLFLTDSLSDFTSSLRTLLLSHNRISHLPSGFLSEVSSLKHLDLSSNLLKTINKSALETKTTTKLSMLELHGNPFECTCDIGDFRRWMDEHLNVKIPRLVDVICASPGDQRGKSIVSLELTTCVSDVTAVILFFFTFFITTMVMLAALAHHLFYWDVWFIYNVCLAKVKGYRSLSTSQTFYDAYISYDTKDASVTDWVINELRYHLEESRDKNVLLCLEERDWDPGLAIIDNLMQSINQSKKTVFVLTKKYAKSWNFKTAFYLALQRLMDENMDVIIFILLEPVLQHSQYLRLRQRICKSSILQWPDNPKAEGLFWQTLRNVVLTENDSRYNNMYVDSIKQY
How it was run: as §1

human TLR9 = target: T3, human TLR9 (Homo sapiens, UniProt Q9NR96); assay: TLR9 inhibition reporter assay (HEK-Blue cells, SEAP reporter, ODN2006 stimulation); settings: HEK-Blue cells overexpressing human TLR9, SEAP reporter, ODN2006 5 nM
T3 construct: host or cells: HEK-Blue cells (HEK293-derived reporter line)
T3 sequence (Q9NR96 26-1032): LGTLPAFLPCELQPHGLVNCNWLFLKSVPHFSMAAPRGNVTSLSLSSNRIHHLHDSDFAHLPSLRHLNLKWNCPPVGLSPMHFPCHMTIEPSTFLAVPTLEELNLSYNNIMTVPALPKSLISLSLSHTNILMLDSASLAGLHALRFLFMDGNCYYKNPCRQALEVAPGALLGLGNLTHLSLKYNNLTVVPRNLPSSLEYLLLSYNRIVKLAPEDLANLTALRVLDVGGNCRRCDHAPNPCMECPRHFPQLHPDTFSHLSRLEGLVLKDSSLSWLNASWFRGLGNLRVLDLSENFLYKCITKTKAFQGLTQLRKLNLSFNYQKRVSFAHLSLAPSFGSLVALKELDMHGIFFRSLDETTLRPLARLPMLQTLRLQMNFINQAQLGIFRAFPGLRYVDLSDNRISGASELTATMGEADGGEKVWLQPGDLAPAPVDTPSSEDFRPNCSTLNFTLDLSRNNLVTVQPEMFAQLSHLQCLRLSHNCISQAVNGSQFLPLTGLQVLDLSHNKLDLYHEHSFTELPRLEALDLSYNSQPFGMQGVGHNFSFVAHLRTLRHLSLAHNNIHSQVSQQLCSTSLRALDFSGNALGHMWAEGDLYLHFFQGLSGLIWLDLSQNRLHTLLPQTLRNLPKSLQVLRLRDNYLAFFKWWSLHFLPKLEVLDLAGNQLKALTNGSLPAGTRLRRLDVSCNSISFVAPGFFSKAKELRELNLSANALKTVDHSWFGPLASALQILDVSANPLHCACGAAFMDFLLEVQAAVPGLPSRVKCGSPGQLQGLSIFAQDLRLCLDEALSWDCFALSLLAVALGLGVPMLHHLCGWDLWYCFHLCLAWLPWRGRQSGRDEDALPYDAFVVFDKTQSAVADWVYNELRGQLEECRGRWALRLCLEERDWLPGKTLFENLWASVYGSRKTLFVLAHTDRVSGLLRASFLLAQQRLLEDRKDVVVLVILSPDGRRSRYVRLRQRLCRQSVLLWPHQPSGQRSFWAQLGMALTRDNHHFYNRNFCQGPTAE
How it was run: as §1

`Cc1cc(-c2[nH]c3ccc(C4CCN(CC(=O)N(C)C)CC4)cc3c2C(C)C)nn2ccnc12` [Example 447, 2-(4-(3-isopropyl-2-(8-methylimidazo[1,2-b]pyridazin-6-yl)-1H-indol-5-yl)piperidin-1-yl)-N,N-dimethylacetamide] gave an IC50 (human TLR7) of under 100 nM, an IC50 (human TLR8) of under 100 nM and an IC50 (human TLR9) of 1000 to 50000 nM.
`CC(C)c1c(-c2ccnc3c2ncn3C)[nH]c2ccc(C3CCNCC3)cc12` [Example 44, 7-(3-isopropyl-5-(piperidin-4-yl)-1H-indol-2-yl)-3-methyl-3H-imidazo[4,5-b]pyridine] gave an IC50 (human TLR7) of 1000 to 50000 nM, an IC50 (human TLR8) of 1000 to 50000 nM and an IC50 (human TLR9) of 1000 to 50000 nM.
Work on `CCc1c(-c2cnc3cccnn23)[nH]c2ccc(C3CCNCC3)cc12` [Example 187, 3-(3-ethyl-5-(piperidin-4-yl)-1H-indol-2-yl)imidazo[1,2-b]pyridazine] yielded an IC50 (human TLR7) of 1000 to 50000 nM, an IC50 (human TLR8) of 1000 to 50000 nM and an IC50 (human TLR9) of 1000 to 50000 nM.
`Cc1nc2cc(-c3[nH]c4ccc(C5CCN(C6COC6)CC5)cc4c3C(C)C)ccn2n1` [Example 728, 7-(3-isopropyl-5-(1-(oxetan-3-yl)piperidin-4-yl)-1H-indol-2-yl)-2-methyl-[1,2,4]triazolo[1,5-a]pyridine] was tested, and the IC50 (human TLR7) was under 100 nM, the IC50 (human TLR8) was 1000 to 50000 nM and the IC50 (human TLR9) was 1000 to 50000 nM.
`CC(C)c1c(-c2ccc3nccn3c2)[nH]c2ccc(C3CCN(Cc4c[nH]cn4)CC3)cc12` [Example 940, 6-(5-(1-((1H-imidazol-4-yl)methyl)piperidin-4-yl)-3-isopropyl-1H-indol-2-yl)imidazo[1,2-a]pyridine] gave an IC50 (human TLR7) of under 100 nM, an IC50 (human TLR8) of under 100 nM and an IC50 (human TLR9) of under 100 nM.
`CC(C)c1c(-c2cnc3ncnn3c2)[nH]c2ccc(C3CCNCC3)cc12` [Example 170, 6-(3-isopropyl-5-(piperidin-4-yl)-1H-indol-2-yl)-[1,2,4]triazolo[1,5-a]pyrimidine] was tested, and the IC50 (human TLR7) was under 100 nM, the IC50 (human TLR8) was under 100 nM and the IC50 (human TLR9) was 100 to 1000 nM.
For `Cc1cc(-c2[nH]c3ccc(C4CCNCC4)cc3c2C(C)C)cc2c(O)c(C#N)cnc12` [Example 107, 4-hydroxy-6-(3-isopropyl-5-(piperidin-4-yl)-1H-indol-2-yl)-8-methylquinoline-3-carbonitrile], the IC50 (human TLR7) was 1000 to 50000 nM, the IC50 (human TLR8) was over 3130 nM and the IC50 (human TLR9) was 1000 to 50000 nM.
`CC(C)c1c(-c2ccnc3[nH]ncc23)[nH]c2ccc(C3CCN(Cc4cccnc4)CC3)cc12` [Example 907, 4-(3-isopropyl-5-(1-(pyridin-3-ylmethyl)piperidin-4-yl)-1H-indol-2-yl)-1H-pyrazolo[3,4-b]pyridine] was tested, and the IC50 (human TLR7) was under 100 nM, the IC50 (human TLR8) was under 100 nM and the IC50 (human TLR9) was 1000 to 50000 nM.
`Cc1ccc(-c2[nH]c3ccc(C4CCN(CC(C)(C)O)CC4)cc3c2C(C)C)c2ncnn12` [Example 769, 1-(4-(3-isopropyl-2-(5-methyl-[1,2,4]triazolo[1,5-a]pyridin-8-yl)-1H-indol-5-yl)piperidin-1-yl)-2-methylpropan-2-ol] showed an IC50 (human TLR7) of under 100 nM, an IC50 (human TLR8) of under 100 nM and an IC50 (human TLR9) of 1000 to 50000 nM.
For `CC(C)c1c(-c2cccn3ncnc23)[nH]c2ccc(C3CCN(CC(C)(C)O)CC3)cc12` [Example 760, 1-(4-(2-([1,2,4]triazolo[1,5-a]pyridin-8-yl)-3-isopropyl-1H-indol-5-yl)piperidin-1-yl)-2-methylpropan-2-ol], the IC50 (human TLR7) was 100 to 1000 nM, the IC50 (human TLR8) was under 100 nM and the IC50 (human TLR9) was 1000 to 50000 nM.
Work on `CNC(=O)CN1CCC(c2ccc3[nH]c(-c4cc(F)c5nccn5c4)c(C(C)C)c3c2)CC1` [Example 410, 2-(4-(2-(8-fluoroimidazo[1,2-a]pyridin-6-yl)-3-isopropyl-1H-indol-5-yl)piperidin-1-yl)-N-methylacetamide] yielded an IC50 (human TLR7) of under 100 nM, an IC50 (human TLR8) of 100 to 1000 nM and an IC50 (human TLR9) of 1000 to 50000 nM.
Work on `Cc1c(-c2[nH]c3ccc(C4CCNCC4)cc3c2C(C)C)cn2ccnc2c1C(C)C` [Example 273, 8-isopropyl-6-(3-isopropyl-5-(piperidin-4-yl)-1H-indol-2-yl)-7-methylimidazo[1,2-a]pyridine] yielded an IC50 (human TLR7) of under 100 nM, an IC50 (human TLR8) of 100 to 1000 nM and an IC50 (human TLR9) of 100 to 1000 nM.
Work on `CCc1c(-c2ccnc3[nH]ncc23)[nH]c2ccc(C3CCNCC3F)cc12` (stereo not drawn) [Example 177, 4-(3-ethyl-5-(3-fluoropiperidin-4-yl)-1H-indol-2-yl)-1H-pyrazolo[3,4-b]pyridine] yielded an IC50 (human TLR7) of under 100 nM, an IC50 (human TLR8) of under 100 nM and an IC50 (human TLR9) of 1000 to 50000 nM.
With `Cc1cn2cc(-c3[nH]c4ccc(C5CCNCC5)cc4c3C(C)C)cc(C)c2n1` [Example 120, 6-(3-isopropyl-5-(piperidin-4-yl)-1H-indol-2-yl)-2,8-dimethylimidazo[1,2-a]pyridine] the IC50 (human TLR7) was under 100 nM, the IC50 (human TLR8) was under 100 nM and the IC50 (human TLR9) was 100 to 1000 nM.
`CC(C)c1c(-c2cc(F)c3nccn3c2)[nH]c2ccc(C3CCN(C(=O)C[C@H](C)O)CC3)cc12` [Example 604, (S)-1-(4-(2-(8-fluoroimidazo[1,2-a]pyridin-6-yl)-3-isopropyl-1H-indol-5-yl)piperidin-1-yl)-3-hydroxybutan-1-one] gave an IC50 (human TLR7) of under 100 nM, an IC50 (human TLR8) of 1000 to 50000 nM and an IC50 (human TLR9) of over 50000 nM.
